Results from patent publication US20220400680A1, “USE OF ACYLCYANAMIDES OR SALTS THEREOF FOR REGULATING PLANT GROWTH” (Alzchem Trostberg GmbH, priority 2019, published 2022).

Assays:
[1] = tested on: Table apple, type Boiken apple (C1); test: Greenhouse test, cut apple branches C1 dipped in test solution, bud development stage; format: in vivo, Malus domestica; set-up: key to Bud development stage, apple branches C1: Stage 0: Buds unchanged; Stage 1: Buds slightly swollen, first green tips visible; Stage 2: strongly swollen, green buds; Stage 3: Buds before breaking open, leaf or flower root already visible; Stage 4: Flower buds fully developed, but still closed, white petals already visible. In the case of the grapevine, stage 4 was the unfolding of the first leaves; Stage 5: Flowers fully open or, in the case of grapevine, unfolding of the flower roots (“Gescheine”) on the fully leafed sprouts; settings: for Good to very good dormancy-breaking effect, apple C1: stage 4 reached or exceeded after 27 days vs negative control; for Dormancy-breaking effect according to the definition, apple C1: stage 4 reached or exceeded after 36 days vs negative control
How it was run: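 Cut Boiken apple branches kept in water jars in a greenhouse at about 22 °C under natural light and dipped in test solution. Solutions contained 0.15 mol test substance (0.075 mol for bis-cyanamides) plus 0.15 g BreakThru OE-446 per 500 g water. Bud development scored on a stage scale up to full flowering.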

[2] = tested on: Table apple, type Zabergäu-Renette (C2); test: Greenhouse test, cut apple branches C2 dipped in test solution, bud development stage; format: in vivo, Malus domestica; set-up: key to Bud development stage, apple branches C2: Stage 0: Buds unchanged; Stage 1: Buds slightly swollen, first green tips visible; Stage 2: strongly swollen, green buds; Stage 3: Buds before breaking open, leaf or flower root already visible; Stage 4: Flower buds fully developed, but still closed, white petals already visible. In the case of the grapevine, stage 4 was the unfolding of the first leaves; Stage 5: Flowers fully open or, in the case of grapevine, unfolding of the flower roots (“Gescheine”) on the fully leafed sprouts
How it was run: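 Cut branches held in water jars in a greenhouse at about 22° C. under natural light after dipping in aqueous test solution: 0.15 mol substance (0.075 mol for bis-cyanamides) plus 0.15 g BreakThru OE-446 per 500 g. Bud development scored on a stage scale from closed buds to fully open flowers.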

[3] = tested on: Table cherry, type Burlat (C3); test: Greenhouse test, cut cherry branches C3 dipped in test solution, bud development stage; format: in vivo, Prunus avium; set-up: key to Bud development stage, cherry branches C3: Stage 0: Buds unchanged; Stage 1: Buds slightly swollen, first green tips visible; Stage 2: strongly swollen, green buds; Stage 3: Buds before breaking open, leaf or flower root already visible; Stage 4: Flower buds fully developed, but still closed, white petals already visible. In the case of the grapevine, stage 4 was the unfolding of the first leaves; Stage 5: Flowers fully open or, in the case of grapevine, unfolding of the flower roots (“Gescheine”) on the fully leafed sprouts
How it was run: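 Cut branches kept in water jars in a greenhouse at about 22° C. under natural light after dipping in aqueous solution of 0.15 mol test substance (0.075 mol for bis-cyanamides) plus 0.15 g BreakThru OE-446 per 500 g. Bud development scored on a stage scale from closed buds to fully open flowers.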

[4] = tested on: Grape, type Pinot Noir (C4); test: Greenhouse test, cut wine sprouts C4 dipped in test solution, bud development stage; format: in vivo, Vitis vinifera subsp. vinifera; set-up: key to Bud development stage, wine sprouts C4: Stage 0: Buds unchanged; Stage 1: Buds slightly swollen, first green tips visible; Stage 2: strongly swollen, green buds; Stage 3: Buds before breaking open, leaf or flower root already visible; Stage 4: Flower buds fully developed, but still closed, white petals already visible. In the case of the grapevine, stage 4 was the unfolding of the first leaves; Stage 5: Flowers fully open or, in the case of grapevine, unfolding of the flower roots (“Gescheine”) on the fully leafed sprouts
How it was run: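 Cut Pinot Noir grapevine sprouts were dipped in aqueous test solution (0.15 mol test substance, or 0.075 mol for bis-cyanamides, plus 0.15 g BreakThru OE-446 per 500 g total) and kept in water jars at about 22° C under natural light. Bud development was scored on a staged scale from closed buds to fully open flowers.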

[5] = T1 (14 d), 0.15 mol (A-14, A-15: 0.075 mol) per 500 g solution
[6] = stage 4 reached or exceeded after 36 days vs negative control

Compound	Bud development stage, apple branches C1 [1, 5]	Bud development stage, apple branches C1 ([1]; T2 (16 d))	Bud development stage, apple branches C1 ([1]; T3 (21 d))	Bud development stage, apple branches C1 ([1]; T4 (27 d))	Bud development stage, apple branches C1 ([1]; T5 (36 d))	Bud development stage, apple branches C1 ([1]; T6 (56 d))	Dormancy-breaking effect according to the definition, apple C1 [1]	Bud development stage, apple branches C2 [2, 5]	Bud development stage, apple branches C2 ([2]; T2 (16 d))	Bud development stage, apple branches C2 ([2]; T3 (21 d))	Bud development stage, apple branches C2 ([2]; T4 (27 d))	Bud development stage, apple branches C2 ([2]; T5 (36 d))	Bud development stage, apple branches C2 ([2]; T6 (56 d))	Bud development stage, cherry branches C3 [3, 5]	Bud development stage, cherry branches C3 ([3]; T2 (16 d))	Bud development stage, cherry branches C3 ([3]; T3 (21 d))	Bud development stage, cherry branches C3 ([3]; T4 (27 d))	Bud development stage, cherry branches C3 ([3]; T5 (36 d))	Bud development stage, cherry branches C3 ([3]; T6 (56 d))	Bud development stage, wine sprouts C4 [4, 5]	other results
CC(C)C(=O)NC#N.[Na] [Example A-7, Sodium isobutyryl cyanamide]	2	3	4	5	5	5	dormancy-breaking effect	0	0	1	1	5	5	0	0	1	2	4	5	0	Good to very good dormancy-breaking effect, apple C1 [1]: good to very good dormancy-breaking effect; Dormancy-breaking effect according to the definition, apple C2 [2, 6]: dormancy-breaking effect; Bud development stage, wine sprouts C4 ([4]; T2 (16 d)): 0; Bud development stage, wine sprouts C4 ([4]; T3 (21 d)): 0; Bud development stage, wine sprouts C4 ([4]; T4 (27 d)): 2; Bud development stage, wine sprouts C4 ([4]; T5 (36 d)): 5; Bud development stage, wine sprouts C4 ([4]; T6 (56 d)): 5; Dormancy-breaking effect according to the definition, wine C4 [4, 6]: dormancy-breaking effect; melting point: 127 to 133 °C
Cc1ccc(C(=O)NC#N)cc1.[Na] [Example A-13, Sodium-4-methyl-benzoyl-cyanamide]	0	0	0	1	4	4	dormancy-breaking effect	0	0	1	3	3	5	0	0	0	1	2	5	0	Bud development stage, wine sprouts C4 ([4]; T2 (16 d)): 0; Bud development stage, wine sprouts C4 ([4]; T3 (21 d)): 0; Bud development stage, wine sprouts C4 ([4]; T4 (27 d)): 1; Bud development stage, wine sprouts C4 ([4]; T5 (36 d)): 3; Bud development stage, wine sprouts C4 ([4]; T6 (56 d)): 5; melting point: 340 °C (dec.)
CCC(=O)NC#N.[Na] [Example A-5, Sodium propionyl cyanamide]	2	2	4	5	5	5	dormancy-breaking effect	0	0	0	1	3	4	1	2	4	4	4	5	0	Good to very good dormancy-breaking effect, apple C1 [1]: good to very good dormancy-breaking effect; Good to very good dormancy-breaking effect, cherry C3 ([3]; stage 4 reached or exceeded after 21 days vs negative control): good to very good dormancy-breaking effect; Dormancy-breaking effect according to the definition, cherry C3 ([3]; stage 4 reached or exceeded after 27 days vs negative control): dormancy-breaking effect; Bud development stage, wine sprouts C4 ([4]; T2 (16 d)): 0; Bud development stage, wine sprouts C4 ([4]; T3 (21 d)): 0; Bud development stage, wine sprouts C4 ([4]; T4 (27 d)): 1; Bud development stage, wine sprouts C4 ([4]; T5 (36 d)): 3; Bud development stage, wine sprouts C4 ([4]; T6 (56 d)): 5; melting point: 143 °C (dec.)
